In patent US20210275624A1, “TREATMENTS FOR IMPROVING OR LESSENING IMPAIRMENT OF MITOCHONDRIAL FUNCTION” (priority 2020, published 2021):
Square brackets hold non-standard residues; d marks the D form. Peptide text beside a SMILES is read from it. Cya = N[C@@H](CS(=O)(=O)O)C(=O)O

Test system: human RPE cells
Format: cell-based
Conditions: RSG 0.4 mM co-treatment with HQ 175 μM, 1.5 hours, vs HQ-treated cells
Protocol: RPE cells were seeded in triplicate wells of collagen-coated XF 24-well plates and grown for 24 hours. RPE cells that had just reached confluence were washed with SF-MEM and treated for 1.5 hours with HQ (175 μM) with or without RSG (0.4 mM). Media were removed and cells were washed with XF base medium containing 1 mM sodium pyruvate, 2 mM glutamine and 8 mM glucose, pH 7.4. The cells were incubated for 1 hour at 37° C. in a C02-free incubator. Oxygen consumption rate (OCR) was measured by Seahorse XFe24 flux analyzer under basal conditions followed by the sequential addition of 1 μM oligomycin, 1 μM tri-fluorocarbonylcyanide phenylhydrazone (FCCP), and 1 μM rotenone and antimycin A. Maximal OCR was the difference in OCR between FCCP-induced respiration and OCR after injection of antimycin A. Mitochondrial spare respiratory capacity was the difference between maximal respiration and basal OCR. Media were removed and the total proteins were extracted for BCA protein assay after OCR measurements. OCRs were normalized to total protein content.

Q: With C[C@@H](O)[C@H](NC(=O)[C@H](CS(=O)(=O)O)NC(=O)CNC(=O)[C@H](CCCNC(=N)N)NC(=O)CN)C(=O)N1CCC[C@H]1C(=O)O [Risuteganib, Glycyl-L-arginylglycyl-3-sulfo-L-alanyl-L-threonyl-L-proline] (H-GRG[Cya]TP-OH) as the compound, how does the ATP production read?
A: Its ATP production is “significantly increased”.

Q: And the spare respiratory capacity?
A: Its spare respiratory capacity is “significantly increased”.
